Source: ChEMBL document CHEMBL3885861, “Open TG-GATES”

Species: Rattus norvegicus
Experiment: Open TG-GATES - Regimen: Single
Type: toxicity, organism-based, Sprague-Dawley
Parameters: regimen Single, gender Male, age 6 weeks
Details: in vivo, po, 20 mg/kg, route gavage, dose level Middle; for APTT / Bas / Eos / Fbg / Hb / Ht / Lym / MCH / MCHC / MCV / Mono / Neu / PT / Plat / RBC / Ret / WBC: tissue Blood; for LIVER: tissue Liver; for A/G / ALP / ALT / AST / BUN / CRE / Ca / Cl / DBIL / GLC / IP / K / LDH / Na / PL / RALB / TBIL / TC / TG / TP / gamma-GTP: tissue Plasma

SMILES: O=[N+]([O-])c1ccc(O)c([N+](=O)[O-])c1 [2,4-DINITROPHENOL]
- TERMINAL_BW (3 h): 203.6 g
- APTT (3 h): 16.6 s
- Bas (3 h): 0%
- Eos (3 h): 1%
- Fbg (3 h): 246.4 mg/dL
- Hb (3 h): 12.6 g/dL
- Ht (3 h): 37.5%
- Lym (3 h): 75%
- MCH (3 h): 22 pg
- MCHC (3 h): 33.5%
- MCV (3 h): 65.6 fL
- Mono (3 h): 11.8%
- Neu (3 h): 12.4%
- PT (3 h): 11.8 s
- Plat (3 h): 115.4 x10_4/uL
- RBC (3 h): 572.2 x10_4/ul
- Ret (3 h): 10.2%
- WBC (3 h): 93.4 x10_2/uL
- LIVER (3 h): 9.5 g
- A/G (3 h): 2.3
- ALP (3 h): 1342.4 IU/L
- ALT (3 h): 37.8 IU/L
- AST (3 h): 62.6 IU/L
- BUN (3 h): 12.8 mg/dL
- CRE (3 h): 0.4 mg/dL
- Ca (3 h): 11.9 mg/dL
- Cl (3 h): 104 meq/L
- DBIL (3 h): 0.012 mg/dL
- GLC (3 h): 218.2 mg/dL
- IP (3 h): 10.9 mg/dL
- K (3 h): 4.2 meq/L
- LDH (3 h): 125.2 IU/L
- Na (3 h): 138.4 meq/L
- PL (3 h): 143 mg/dL
- RALB (3 h): 3.8 g/dL
- TBIL (3 h): 0.036 mg/dL
- TC (3 h): 85.4 mg/dL
- TG (3 h): 68.6 mg/dL
- TP (3 h): 5.5 g/dL
- gamma-GTP (3 h): 0 IU/L
- TERMINAL_BW (6 h): 200.1 g
- APTT (6 h): 16 s
- Bas (6 h): 0%
- Eos (6 h): 1.2%
- Fbg (6 h): 235 mg/dL
- Hb (6 h): 13.1 g/dL
- Ht (6 h): 39.1%
- Lym (6 h): 71.4%
- MCH (6 h): 22 pg
- MCHC (6 h): 33.6%
- MCV (6 h): 65.5 fL
- Mono (6 h): 10.2%
- Neu (6 h): 17.2%
- PT (6 h): 12 s
- Plat (6 h): 124 x10_4/uL
- RBC (6 h): 596.4 x10_4/ul
- Ret (6 h): 8.9%
- WBC (6 h): 111 x10_2/uL
- LIVER (6 h): 8.2 g
- A/G (6 h): 2.6
- ALP (6 h): 1422.2 IU/L
- ALT (6 h): 36.4 IU/L
- AST (6 h): 78.6 IU/L
- BUN (6 h): 12.2 mg/dL
- CRE (6 h): 0.4 mg/dL
- Ca (6 h): 11 mg/dL
- Cl (6 h): 105.8 meq/L
- DBIL (6 h): 0.02 mg/dL
- GLC (6 h): 204.6 mg/dL
- IP (6 h): 10.9 mg/dL
- K (6 h): 4.5 meq/L
- LDH (6 h): 129.2 IU/L
- Na (6 h): 139.2 meq/L
- PL (6 h): 141.2 mg/dL
- RALB (6 h): 3.9 g/dL
- TBIL (6 h): 0.044 mg/dL
- TC (6 h): 85.6 mg/dL
- TG (6 h): 46.4 mg/dL
- TP (6 h): 5.4 g/dL
- gamma-GTP (6 h): 0 IU/L
- TERMINAL_BW (9 h): 203.1 g
- APTT (9 h): 16.2 s
- Bas (9 h): 0%
- Eos (9 h): 0.8%
- Fbg (9 h): 255.5 mg/dL
- Hb (9 h): 12.9 g/dL
- Ht (9 h): 38.4%
- Lym (9 h): 77.2%
- MCH (9 h): 22.1 pg
- MCHC (9 h): 33.8%
- MCV (9 h): 65.4 fL
- Mono (9 h): 4.8%
- Neu (9 h): 17.2%
- PT (9 h): 12 s
- Plat (9 h): 132.8 x10_4/uL
- RBC (9 h): 587.2 x10_4/ul
- Ret (9 h): 10.4%
- WBC (9 h): 104.5 x10_2/uL
- LIVER (9 h): 8.5 g
- A/G (9 h): 2.4
- ALP (9 h): 1370.8 IU/L
- ALT (9 h): 34 IU/L
- AST (9 h): 64.5 IU/L
- BUN (9 h): 10.5 mg/dL
- CRE (9 h): 0.4 mg/dL
- Ca (9 h): 11.3 mg/dL
- Cl (9 h): 104.5 meq/L
- DBIL (9 h): 0.02 mg/dL
- GLC (9 h): 198.5 mg/dL
- IP (9 h): 11.2 mg/dL
- K (9 h): 4.7 meq/L
- LDH (9 h): 158 IU/L
- Na (9 h): 139 meq/L
- PL (9 h): 153.8 mg/dL
- RALB (9 h): 3.9 g/dL
- TBIL (9 h): 0.045 mg/dL
- TC (9 h): 83.5 mg/dL
- TG (9 h): 70.2 mg/dL
- TP (9 h): 5.6 g/dL
- gamma-GTP (9 h): 0 IU/L
- TERMINAL_BW (24 h): 216.8 g
- APTT (24 h): 15.6 s
- Bas (24 h): 0%
- Eos (24 h): 1.2%
- Fbg (24 h): 234.2 mg/dL
- Hb (24 h): 12.9 g/dL
- Ht (24 h): 38.4%
- Lym (24 h): 70.4%
- MCH (24 h): 21.6 pg
- MCHC (24 h): 33.7%
- MCV (24 h): 64.2 fL
- Mono (24 h): 11.6%
- Neu (24 h): 16.8%
- PT (24 h): 11.7 s
- Plat (24 h): 125.6 x10_4/uL
- RBC (24 h): 597.8 x10_4/ul
- Ret (24 h): 9%
- WBC (24 h): 122.2 x10_2/uL
- LIVER (24 h): 11.1 g
- A/G (24 h): 2.4
- ALP (24 h): 1483.4 IU/L
- ALT (24 h): 43.2 IU/L
- AST (24 h): 67.2 IU/L
- BUN (24 h): 16 mg/dL
- CRE (24 h): 0.4 mg/dL
- Ca (24 h): 11.3 mg/dL
- Cl (24 h): 103.2 meq/L
- DBIL (24 h): 0.01 mg/dL
- GLC (24 h): 182.2 mg/dL
- IP (24 h): 7.2 mg/dL
- K (24 h): 4.6 meq/L
- LDH (24 h): 101.4 IU/L
- Na (24 h): 139 meq/L
- PL (24 h): 163.8 mg/dL
- RALB (24 h): 3.9 g/dL
- TBIL (24 h): 0.032 mg/dL
- TC (24 h): 90 mg/dL
- TG (24 h): 131.8 mg/dL
- TP (24 h): 5.5 g/dL
- gamma-GTP (24 h): 0.8 IU/L
